Reference: PMC9399069, “Imaging PARP with [^18F]rucaparib in pancreatic cancer models” (European Journal of Nuclear Medicine and Molecular Imaging, 2022)

How the values were obtained:
Type in all cases: cell-based, human
PSN1 cells [1] = assay: Uptake and retention of radiolabelled PARP inhibitors in PSN1 cells treated with DNA-damaging reagents; settings: 100 μM, 3 h, retention at 3 h
Method: (§1) AsPC1 (1 × 10^5 cells/well) and PSN1 cells (7.5 × 10^4 cells/well) were exposed to methyl methanesulfonate (MMS) or temozolomide (TMZ) (100 μM, in a total of 270 μL growth medium) for 3 h at 37 °C. Additionally, [^18F]rucaparib (500 kBq, 3.6 GBq/μmol; [^TotalF]rucaparib final concentration: 301 nM) or [^18F]olaparib (400 kBq, 8.5 GBq/μmol; [^TotalF]olaparib final concentration: 300 nM) was added, and the cells were incubated at 37 °C for 30 min. Cell culture medium was removed, and cells were washed with PBS. For cell retention, fresh medium (300 μL) was added to the cells. Cells were then further incubated at 37°C for 3 h. Cell culture medium was removed, and the amount of ^18F in the cell lysates was measured as above. Protein expression of the cells after DNA-damaging treatments (or PARP inhibitors 10 μM) was performed using flow cytometry as above.

PSN1 cells [2] = assay: Protein expression by flow cytometry after PARP inhibitors or DNA-damaging reagents, PSN1 cells; settings: 100 μM, 3 h
Method: (§2) Relative expression of PARP1, 2 and 3, ALDH2 and IMPDH2 was determined by flow cytometry. Cells (1 × 10^6 cells/well) were seeded in 96-well plates in growth medium, washed with FACS buffer (PBS, 2% FBS, 1 mM EDTA, 0.1% NaN3) and centrifuged at 500×g for 5 min. Immunostaining was performed using the Foxp3/transcription factor staining buffer set (eBioscience^TM, USA). Intracellular staining was conducted in permeabilisation buffer for 30 min at 4 °C in the dark using the following antibodies: AF488-conjugated anti-PARP-1 (1:100; sc-80070), AF594-conjugated anti-PARP-2 (1:100; sc-393310), anti-PARP-3 (1:100; sc-390771) or anti-PARP-tankyrase-1/2 (1:100; sc-365897) from Santa Cruz Biotechnology Inc. (USA), AF488-conjugated anti-IMPDH2 (1:500; ab-200770) from Abcam plc. (UK) and AF488-conjugated anti-ALDH2 (1:100, ABIN6817568) from Antibodies-online GmbH (UK). Fixable viability dye ef780 (1:4000; eBioscience^TM; 65-0865-14) was used for live and dead cells discrimination. Fixation of immunostained cells was performed for 15 min at room temperature. Flow cytometry was conducted on the CytoFLEX benchtop flow cytometer (Beckman Coulter, USA), with appropriate lasers and filters, positive and negative controls. Data were analysed using FlowJo^TM (Tree Star Inc., BD Biosciences, USA).
as §1

AsPC1 cells [3] = assay: Uptake and retention of radiolabelled PARP inhibitors in AsPC1 cells treated with DNA-damaging reagents; settings: 100 μM, 3 h, retention at 3 h
Method: as §1

AsPC1 cells [4] = assay: Protein expression by flow cytometry after PARP inhibitors or DNA-damaging reagents, AsPC1 cells; settings: 100 μM, 3 h
Method: as §2, §1

Compound: COS(C)(=O)=O [MMS, methyl methanesulfonate]
- Cell association and retention of [TotalF]rucaparib and [TotalF]olaparib after exposure to DNA-damaging reagent (PSN1 cells [1]): increased
- γH2AX expression (PSN1 cells [2]): increasing trend
- Upregulation of PARP proteins (PSN1 cells [2]; flow cytometry): < 10%
- Cell association and retention of [TotalF]rucaparib and [TotalF]olaparib after exposure to DNA-damaging reagent (AsPC1 cells [3]): increased
- Upregulation of PARP proteins (AsPC1 cells [4]; flow cytometry): < 10%
- γH2AX expression (AsPC1 cells [4]; not statistically significant in AsPC1 cells): increasing trend
